Reference: patent publication US20250091989A1, “SMALL MOLECULE PROTEIN SYNTHESIS MODULATORS” (Interdict Bio, Inc., priority 2023, published 2025)
Structures can show the parent of a compound that is named as a salt.

How the values were obtained:
Format in all cases: biochemical
Details in all cases: HeLa S3 lysate, sfGFP/mCherry ratio, 2 hrs at 30° C.
ALK = test: In vitro transcription-translation (IVTT) reporter assay, ALK test sequence
Source text: (§1) All reporter constructs have been cloned into the pT7CFE1-CHis plasmid (ThermoFisher #88860) using Gibson assembly procedures (NEB #E2611L). The parental pT7CFE1-CHis plasmid contains an EMCV IRES at the 5′UTR for translation initiation, a multiple-cloning site (MCS) for gene insertion, an optional C-terminal His-epitope tag, and polyA sequence in the 3′UTR to regulate mRNA stability. All reporters are designed to be inserted at the MCS to include a red fluorescent protein (mCherry), P2A self-cleaving peptide which releases the preceding mCherry protein product, and a fusion open reading frame containing a 3×FLAG epitope, a peptide sequence of interest (TEST), and green fluorescent protein (sfGFP).
(§2) Construct Plasmid Preparation: All plasmids are isolated from MACH1 cells (ThermoFisher) grown overnight in ampicillin-containing luria broth, and purified using ZymoPure Express Plasmid Midiprep Kit (Zymo Research). Constructs are sequenced verified and diluted to a working concentration of 110 ng/μL.
(§3) HeLa S3 Lysate Preparation: HeLa S3 cell pellets are acquired from Ipracell/Ipratech (Belgium) and shipped as 4 mL frozen cell pellets on dry ice for storage at −80° C. until use. The procedure for lysate preparation is as follows. Prepare 1× Lysis Buffer, cold and stored on ice:
(§4) Each preparation takes 8 cell pellets (4 ml packed volume each, approximately 1.0×10^9 cells per pellet). Thaw cell pellets from −80° C. on ice for 90 mins. Lay pellets horizontally on top of the ice and rotate every 30 mins to ensure even thawing. Once thawed, add 4 mL of cold lysis buffer to each pellet, and using a serological pipet, gently pipet up and down to break up clumps. Incubate resuspended cells in ice for an additional 30 mins (plunged into ice). During 30 min incubation, rinse and RNase-zap (Ambion) glass dounces (use loose pestle “A”), gently dry and place on ice until needed. Prepare RNase-free Eppendorf tubes for spinning and for batch storage. Add batch labels to 1.5-1.7 mL RNase-free microcentrifuge tubes (labeling scheme below). Each batch will have an extra 1.5-1.7 mL RNase-free microcentrifuge tube for 40 μL of lysate, label the top of this tube (labeling scheme below). After 30 min incubation, transfer all 8 mL of cell pellet to dounce. Cell lysis is complete after douncing 100 times. Aliquot cell lysis into 1.5-1.7 mL temporary-microcentrifuge tubes. Place tubes in centrifuge with “fins” out, and spin at 1,200 xg for 5 mins. After the first spin use a 1 mL pipet to resuspend each tube and repeat spin. This acts as an additional lysis step, is more vigorous and increases lysate yield. During second spin get liquid N2 and a fresh conical tube on ice.
(§5) After spin is complete, transfer supernatant (lysate) from microcentrifuge tubes into the 50 mL conical tube and keep on ice. Repeat steps 10-14 for all other cell pellets until completed. Once all cell lysate has been transferred to the 50 mL conical tube pipet to mix so the solution is homogenous. Transfer 1 mL of lysate into batch-labeled microcentrifuge tubes and flash freeze in liquid nitrogen. Be sure to pipet up and down to mix throughout transfer step. Place all tubes in the […] for long-term storage.
(§6) In vitro transcription-translation assay setup: Each assay includes a master mix containing lysate and shared components, a 96-well plate containing compound titrations for testing, a 96-well DNA plate with reporter constructs to be tested, 96-well skirted PCR plates, and 96-well flat-bottom, black, fluorescent assay plates. […]

MYC = test: In vitro transcription-translation (IVTT) reporter assay, MYC test sequence
Source text: as §1, §2, §3, §4, §5, §6

KRAS G12D = test: In vitro transcription-translation (IVTT) reporter assay, KRAS G12D test sequence
Source text: as §1, §2, §3, §4, §5, §6

IC50 (ALK) [µM] | IC50 (MYC) [µM] | IC50 (KRAS G12D) [µM] | Structure (SMILES)
> 30 | > 30 | > 30 | COc1ccc(C[C@H]2NC[C@H](O)[C@H]2OC(=O)c2ccc(S(=O)(=O)N(C)C)cc2)cc1 [V000198, (2R,3S,4S)-4-hydroxy-2-[(4-methoxyphenyl)methyl]pyrrolidin-3-yl 4-(dimethylsulfamoyl)benzoate]
< 10 | < 10 | < 10 | COc1ccc(C[C@H]2NC[C@H](O)[C@H]2OC(=O)CNc2c(N)c(=O)c2=O)cc1 [V000215, (2R,3S,4S)-4-hydroxy-2-[(4-methoxyphenyl)methyl]pyrrolidin-3-yl 2-[(2-amino-3,4-dioxocyclobut-1-en-1-yl)amino]acetate]
< 10 | < 10 | 20 to 30 | COc1ccc(C[C@H]2NC[C@H](O)[C@H]2OC(=O)CN)cc1 [V186760, (2R,3S,4S)-4-hydroxy-2-[(4-methoxyphenyl)methyl]pyrrolidin-3-yl 2-aminoacetate]
< 10 | < 10 | > 30 | COc1ccc(C[C@H]2NC[C@H](O)[C@H]2OC(=O)C2CCOC2)cc1 (stereo partly drawn) [V186761, (2R,3S,4S)-4-hydroxy-2-[(4-methoxyphenyl)methyl]pyrrolidin-3-yl oxolane-3-carboxylate]
> 30 | > 30 | > 30 | COc1ccc(C[C@H]2NC[C@H](O)[C@H]2OC(=O)C2CN(CC3COC3)C2)cc1 [V186772, (2R,3S,4S)-4-hydroxy-2-[(4-methoxyphenyl)methyl]pyrrolidin-3-yl 1-(oxetan-3-ylmethyl)azetidine-3-carboxylate]
< 10 | < 10 | 20 to 30 | COc1ccc(C[C@H]2NC[C@H](O)[C@H]2OC(=O)C2CC(F)(F)C2)cc1 [V186775, (2R,3S,4S)-4-hydroxy-2-[(4-methoxyphenyl)methyl]pyrrolidin-3-yl 3,3-difluorocyclobutane-1-carboxylate]
< 10 | < 10 | < 10 | COc1ccc(C[C@H]2NC[C@H](O)[C@H]2OC(=O)CCCCC(C)C)cc1 [V186779]
> 30 | > 30 | > 30 | CCC1(C(=O)O[C@@H]2[C@@H](O)CN[C@@H]2Cc2ccc(OC)cc2)COC1 [V186781, (2R,3S,4S)-4-hydroxy-2-[(4-methoxyphenyl)methyl]pyrrolidin-3-yl 3-ethyloxetane-3-carboxylate]
< 10 | < 10 | < 10 | COCCOCC(=O)O[C@@H]1[C@@H](O)CN[C@@H]1Cc1ccc(OC)cc1 [V186783]
< 10 | < 10 | 10 to 20 | COc1ccc(C[C@H]2NC[C@H](O)[C@H]2OC(=O)CC(C)(C)O)cc1 [V186784, (2R,3S,4S)-4-hydroxy-2-[(4-methoxyphenyl)methyl]pyrrolidin-3-yl 3-hydroxy-3-methylbutanoate]
< 10 | > 30 | > 30 | COc1ccc(C[C@H]2NC[C@H](O)[C@H]2OC(=O)C(C)(C)O)cc1 [V186785, (2R,3S,4S)-4-hydroxy-2-[(4-methoxyphenyl)methyl]pyrrolidin-3-yl 2-hydroxy-2-methylpropanoate]
< 10 | < 10 | < 10 | CC(=O)O[C@@H]1[C@@H](O)CN[C@@H]1Cc1ccccc1 [V186810, (2R,3S,4S)-2-benzyl-4-hydroxy pyrrolidin-3-yl acetate]
< 10 | > 30 | > 30 | COc1ccc(C[C@H]2NC[C@H](O)[C@H]2OC(=O)[C@H]2CCCO2)cc1 [V186824, (2R,3S,4S)-4-hydroxy-2-[(4-methoxyphenyl)methyl]pyrrolidin-3-yl (2R)-oxolane-2-carboxylate]
< 10 | < 10 | < 10 | COc1ccc(C[C@H]2NC[C@H](O)[C@H]2OC(=O)[C@@H]2CCCO2)cc1 [V186825, (2R,3S,4S)-4-hydroxy-2-[(4-methoxyphenyl)methyl]pyrrolidin-3-yl (2S)-oxolane-2-carboxylate]
< 10 | 10 to 20 | > 30 | COc1ccc(C[C@H]2NC[C@H](O)[C@H]2OC(=O)CCN2CC(=O)NCC2=O)cc1 [V186849, (2R,3S,4S)-4-hydroxy-2-[(4-methoxyphenyl)methyl]pyrrolidin-3-yl 3-(2,5-dioxopiperazin-1-yl)propanoate]
20 to 30 | > 30 | > 30 | COc1ccc(C[C@H]2NC[C@H](O)[C@H]2OC(=O)CCN2CC(=O)N(C)CC2=O)cc1 [V186850]
< 10 | > 30 | > 30 | COc1ccc(C[C@H]2NC[C@H](O)[C@H]2OC(=O)CCN2CCNCC2)cc1 [V186857, (2R,3S,4S)-4-hydroxy-2-[(4-methoxyphenyl)methyl]pyrrolidin-3-yl 3-(piperazin-1-yl)propanoate]
< 10 | < 10 | > 30 | COc1ccc(C[C@H]2NC[C@H](O)[C@H]2OC(=O)C2CCO2)cc1 (stereo partly drawn) [V186865, (2R,3S,4S)-4-hydroxy-2-(4-methoxybenzyl)pyrrolidin-3-yl oxetane-2-carboxylate FA salt]
< 10 | 10 to 20 | > 30 | COc1ccc(C[C@H]2NC[C@H](O)[C@H]2OC(=O)C2CN(C(C)=O)C2)cc1 [V186866, (2R,3S,4S)-4-hydroxy-2-[(4-methoxyphenyl)methyl]pyrrolidin-3-yl 1-acetylazetidine-3-carboxylate]
< 10 | < 10 | 10 to 20 | COc1ccc(C[C@H]2NC[C@H](O)[C@H]2OC(=O)CCN2C(=O)CNC2=O)cc1 [V186870, (2R,3S,4S)-4-hydroxy-2-[(4-methoxyphenyl)methyl]pyrrolidin-3-yl 3-(2,5-dioxoimidazolidin-1-yl)propanoate]
< 10 | < 10 | < 10 | COc1ccc(C[C@H]2NC[C@H](O)[C@H]2OC(=O)CCC2CNC2)cc1 [V186873, (2R,3S,4S)-4-hydroxy-2-[(4-methoxyphenyl)methyl]pyrrolidin-3-yl 3-(azetidin-3-yl)propanoate]
< 10 | < 10 | < 10 | C#Cc1ccc(C[C@H]2NC[C@H](O)[C@H]2OC(C)=O)cc1 [V186940]

Structure (SMILES) | IC50 (ALK) [µM] | IC50 (MYC) [µM] | IC50 (KRAS G12D) [µM]
COc1ccc(C[C@H]2NC[C@H](O)[C@H]2OC(=O)C2CCS(=N)(=O)CC2)cc1 (stereo partly drawn) [V186712, (2R,3S,4S)-4-hydroxy-2-[(4-methoxyphenyl)methyl]pyrrolidin-3-yl (1 s)-1-imino-1-oxo-1lambda6-thiane-4-carboxylate] | > 30 | > 30 | > 30
COc1ccc(C[C@H]2NC[C@H](O)[C@H]2OC(=O)CCN2CCN(C)CC2)cc1 [V186858, (2R,3S,4S)-4-hydroxy-2-[(4-methoxyphenyl)methyl]pyrrolidin-3-yl 3-(4-methylpiperazin-1-yl)propanoate; trifluoroacetic acid] | > 30 | > 30 | > 30
COc1ccc(C[C@H]2NC[C@H](O)[C@H]2OC(=O)CCN2CC(=O)NC(=O)C2)cc1 [V186859, (2R,3S,4S)-4-hydroxy-2-[(4-methoxyphenyl)methyl]pyrrolidin-3-yl 3-(3,5-dioxopiperazin-1-yl)propanoate; trifluoroacetic acid] | < 10 | < 10 | < 10
COc1ccc(C[C@H]2NC[C@H](O)[C@H]2OC(=O)C2CC(=O)N2)cc1 (stereo partly drawn) [V186864, (2R,3S,4S)-4-hydroxy-2-[(4-methoxyphenyl)methyl]pyrrolidin-3-yl 4-oxoazetidine-2-carboxylate; trifluoroacetic acid] | < 10 | 10 to 20 | > 30
